Biological target: T1, human GPBAR1 receptor (Homo sapiens, UniProt Q8TDU6)
T1 construct: expressed in transfected cells
T1 sequence (Q8TDU6 1-330): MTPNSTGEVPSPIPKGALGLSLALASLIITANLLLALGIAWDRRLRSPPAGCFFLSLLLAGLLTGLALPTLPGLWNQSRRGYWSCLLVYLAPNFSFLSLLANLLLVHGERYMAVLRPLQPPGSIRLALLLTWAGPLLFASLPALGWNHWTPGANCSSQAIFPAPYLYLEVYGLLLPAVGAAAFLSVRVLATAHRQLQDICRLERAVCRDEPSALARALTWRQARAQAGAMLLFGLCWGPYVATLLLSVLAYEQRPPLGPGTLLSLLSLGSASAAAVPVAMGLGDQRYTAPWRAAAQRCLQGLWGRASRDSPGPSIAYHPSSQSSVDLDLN
Test: functional cAMP assay in CHO-dhfr(minus) cells expressing human GPBAR1 receptors
Format: cell-based
Details: cAMP increase (TR-FRET) in CHO-dhfr(minus) cells expressing human GPBAR1; compounds incubated 30 min at 30° C.

| SMILES | EC50 [nM] |
| --- | --- |
| Cc1ccccc1N(C)C(=O)c1ccncc1Oc1ccc(Cl)cc1Cl [Example 99, 3-(2,4-Dichloro-phenoxy)-N-methyl-N-o-tolyl-isonicotinamide] | 388 |
| CN(C(=O)c1ccncc1Oc1ccc(Cl)cc1Cl)c1ccccc1Cl [Example 100, N-(2-Chloro-phenyl)-3-(2,4-dichloro-phenoxy)-N-methyl-isonicotinamide] | 1050 |
| COc1ccccc1N(C)C(=O)c1ccncc1Oc1ccc(Cl)cc1Cl [Example 101, 3-(2,4-Dichloro-phenoxy)-N-(2-methoxy-phenyl)-N-methyl-isonicotinamide] | 150 |
| COc1ncccc1N(C)C(=O)c1ccncc1Oc1ccc(Cl)cc1Cl [Example 102, 3-(2,4-Dichloro-phenoxy)-N-(2-methoxy-pyridin-3-yl)-N-methyl-isonicotinamide] | 703 |
| O=C(c1ccncc1Oc1ccc(F)c(Cl)c1)N1CCCc2ccc(F)cc21 [Example 103, [3-(3-Chloro-4-fluoro-phenoxy)-pyridin-4-yl]-(7-fluoro-3,4-dihydro-2H-quinolin-1-yl)-methanone] | 299 |
| O=C(c1ccncc1Oc1ccc(F)c(Cl)c1)N1CCCc2cc(F)ccc21 [Example 104, [3-(3-Chloro-4-fluoro-phenoxy)-pyridin-4-yl]-(6-fluoro-3,4-dihydro-2H-quinolin-1-yl)-methanone] | 173 |
| O=C(c1ccncc1Oc1ccc(F)c(Cl)c1)N1CCCc2cc(F)cc(F)c21 [Example 105, [3-(3-Chloro-4-fluoro-phenoxy)-pyridin-4-yl]-(6,8-difluoro-3,4-dihydro-2H-quinolin-1-yl)-methanone] | 138 |
| Cc1ccccc1N(C)C(=O)c1ccncc1Oc1ccc(F)c(Cl)c1 [Example 106, 3-(3-Chloro-4-fluoro-phenoxy)-N-methyl-N-o-tolyl-isonicotinamide] | 425 |
| CN(C(=O)c1ccncc1Oc1ccc(F)c(Cl)c1)c1ccccc1Cl [Example 107, 3-(3-Chloro-4-fluoro-phenoxy)-N-(2-chloro-phenyl)-N-methyl-isonicotinamide] | 662 |
| COc1ccccc1N(C)C(=O)c1ccncc1Oc1ccc(F)c(Cl)c1 [Example 108, 3-(3-Chloro-4-fluoro-phenoxy)-N-(2-methoxy-phenyl)-N-methyl-isonicotinamide] | 122 |
| COc1ncccc1N(C)C(=O)c1ccncc1Oc1ccc(F)c(Cl)c1 [Example 109, 3-(3-Chloro-4-fluoro-phenoxy)-N-(2-methoxy-pyridin-3-yl)-N-methyl-isonicotinamide] | 562 |
| O=C(c1ccccc1Oc1cc(Cl)ccc1Cl)N1CCCc2ccccc21 [Example 110, [2-(2,5-Dichloro-phenoxy)-phenyl]-(3,4-dihydro-2H-quinolin-1-yl)-methanone] | 29 |
| O=C(c1ccccc1Oc1cc(Cl)ccc1Cl)N1CCCc2cc(F)c(F)cc21 [Example 111, [2-(2,5-Dichloro-phenoxy)-phenyl]-(6,7-difluoro-3,4-dihydro-2H-quinolin-1-yl)-methanone] | 102 |
| CC1Cc2ccccc2N1C(=O)c1ccccc1Oc1cc(Cl)ccc1Cl (stereo not drawn) [Example 112, [2-(2,5-Dichloro-phenoxy)-phenyl]-(2-methyl-2,3-dihydro-indol-1-yl)-methanone] | 1710 |
| O=C(c1cc(F)ccc1Oc1cc(Cl)ccc1Cl)N1CCCc2ccccc21 [Example 113, [2-(2,5-Dichloro-phenoxy)-5-fluoro-phenyl]-(3,4-dihydro-2H-quinolin-1-yl)-methanone] | 149 |
| CC1CCc2ccccc2N1C(=O)c1cc(F)ccc1Oc1cc(Cl)ccc1Cl (stereo not drawn) [Example 114, [2-(2,5-Dichloro-phenoxy)-5-fluoro-phenyl]-(2-methyl-3,4-dihydro-2H-quinolin-1-yl)-methanone] | 946 |
| Cc1cccc2c1N(C(=O)c1cc(F)ccc1Oc1cc(Cl)ccc1Cl)CCC2 [Example 115, [2-(2,5-Dichloro-phenoxy)-5-fluoro-phenyl]-(8-methyl-3,4-dihydro-2H-quinolin-1-yl)-methanone] | 920 |
| Cc1ccc2c(c1)CCCN2C(=O)c1cc(F)ccc1Oc1cc(Cl)ccc1Cl [Example 116, [2-(2,5-Dichloro-phenoxy)-5-fluoro-phenyl]-(6-methyl-3,4-dihydro-2H-quinolin-1-yl)-methanone] | 1160 |
| O=C(c1cc(F)ccc1Oc1cc(Cl)ccc1Cl)N1CCOc2ccccc21 [Example 117, [2-(2,5-Dichloro-phenoxy)-5-fluoro-phenyl]-(2,3-dihydro-benzo[1,4]oxazin-4-yl)-methanone] | 572 |
| CN(C(=O)c1cc(F)ccc1Oc1cc(Cl)ccc1Cl)c1ccccc1 [Example 118, 2-(2,5-Dichloro-phenoxy)-5-fluoro-N-methyl-N-phenyl-benzamide] | 771 |

| SMILES | EC50 [nM] |
| --- | --- |
| N#Cc1ccc(Oc2cc(Cl)ccc2Cl)c(C(=O)N2CCCc3ccccc32)c1 [Example 119, 4-(2,5-Dichloro-phenoxy)-3-(3,4-dihydro-2H-quinoline-1-carbonyl)-benzo nitrile] | 165 |
| Cc1cc(F)c2c(c1)CCCN2C(=O)c1ccccc1Oc1cc(Cl)ccc1Cl [Example 120, [2-(2,5-Dichloro-phenoxy)-phenyl]-(8-fluoro-6-methyl-3,4-dihydro-2H-quinolin-1-yl)-methanone] | 1650 |
| O=C(c1ccccc1Oc1cc(Cl)ccc1Cl)N1CCCc2cc(F)cc(F)c21 [Example 121, [2-(2,5-Dichloro-phenoxy)-phenyl]-(6,8-difluoro-3,4-dihydro-2H-quinolin-1-yl)-methanone] | 231 |
| O=C(c1cccnc1Oc1cc(Cl)ccc1Cl)N1CCNc2ccccc21 [Example 122, [2-(2,5-Dichloro-phenoxy)-pyridin-3-yl]-(3,4-dihydro-2H-quinoxalin-1-yl)-methanone] | 62 |
| CC(C)N1CCN(C(=O)c2cccnc2Oc2cc(Cl)ccc2Cl)c2ccccc21 [Example 124, [2-(2,5-Dichloro-phenoxy)-pyridin-3-yl]-(4-isopropyl-3,4-dihydro-2H-quinoxalin-1-yl)-methanone] | 607 |
| O=C(c1cccnc1Oc1cc(Cl)ccc1Cl)N1CCN(C2CC2)c2ccccc21 [Example 125, (4-Cyclopropyl-3,4-dihydro-2H-quinoxalin-1-yl)-[2-(2,5-dichloro-phenoxy)-pyridin-3-yl]-methanone] | 4 |
| O=C(c1cccnc1Oc1cc(Cl)ccc1Cl)N1CCN(C2CCC2)c2ccccc21 [Example 126, (4-Cyclobutyl-3,4-dihydro-2H-quinoxalin-1-yl)-[2-(2,5-dichloro-phenoxy)-pyridin-3-yl]-methanone] | 10 |
| O=C(c1cccnc1Oc1cc(Cl)ccc1Cl)N1CCN(C2COC2)c2ccccc21 [Example 127, [2-(2,5-Dichloro-phenoxy)-pyridin-3-yl]-(4-oxetan-3-yl-3,4-dihydro-2H-quinoxalin-1-yl)-methanone] | 14 |
| O=C1CCN(C(=O)c2cccnc2Oc2cc(Cl)ccc2Cl)c2ccccc21 [Example 128, 1-[2-(2,5-Dichloro-phenoxy)-pyridine-3-carbonyl]-2,3-dihydro-1H-quinolin-4-one] | 918 |
| C=C1CCN(C(=O)c2cccnc2Oc2cc(Cl)ccc2Cl)c2ccccc21 [Example 129, [2-(2,5-Dichloro-phenoxy)-pyridin-3-yl]-(4-methylene-3,4-dihydro-2H-quinolin-1-yl)-methanone] | 24 |
| O=C(c1cccnc1Oc1cc(Cl)ccc1Cl)N1CCC(N2CC(F)(F)C2)c2ccccc21 (stereo not drawn) [Example 130, [2-(2,5-Dichloro-phenoxy)-pyridin-3-yl]-[4-(3,3-difluoro-azetidin-1-yl)-3,4-dihydro-2H-quinolin-1-yl]-methanone] | 1830 |
| CN(C(=O)c1cccnc1Oc1cc(Cl)ccc1Cl)c1ccccc1C1CC1 [Example 131, N-(2-Cyclopropyl-phenyl)-2-(2,5-dichloro-phenoxy)-N-methyl-nicotinamide] | 321 |
| CSc1ccccc1N(C)C(=O)c1cccnc1Oc1cc(Cl)ccc1Cl [Example 132, 2-(2,5-Dichloro-phenoxy)-N-methyl-N-(2-methylsulfanyl-phenyl)-nicotinamide] | 66 |
| CN(C(=O)c1cccnc1Oc1cc(Cl)ccc1Cl)c1ccccc1-c1ccnn1C [Example 133, 2-(2,5-Dichloro-phenoxy)-N-methyl-N-[2-(2-methyl-2H-pyrazol-3-yl)-phenyl]-nicotinamide] | 1970 |
| CN(C(=O)c1cccnc1Oc1cc(Cl)ccc1Cl)c1ccccc1N [Example 134, N-(2-Amino-phenyl)-2-(2,5-dichloro-phenoxy)-N-methyl-nicotinamide] | 1650 |
| CN(C(=O)c1cccnc1Oc1cc(Cl)ccc1Cl)c1cc(Cl)ccc1Cl [Example 135, 2-(2,5-Dichloro-phenoxy)-N-(2,5-dichloro-phenyl)-N-methyl-nicotinamide] | 473 |
| O=C(c1cccnc1Oc1cc(Cl)ccc1Cl)N1CC2CCCN2c2ccccc21 (stereo not drawn) [Example 136, [2-(2,5-Dichloro-phenoxy)-pyridin-3-yl]-(2,3,3a,4-tetrahydro-1H-pyrrolo[1,2-a]quinoxalin-5-yl)-methanone] | 246 |
| CC(C)CN1CCN(C(=O)c2cccnc2Oc2cc(Cl)ccc2Cl)c2ccccc21 [Example 137, [2-(2,5-Dichloro-phenoxy)-pyridin-3-yl]-(4-isobutyl-3,4-dihydro-2H-quinoxalin-1-yl)-methanone] | 201 |
| O=C(c1cccnc1Oc1cc(Cl)ccc1Cl)N1CCN(CC2CC2)c2ccccc21 [Example 138, (4-Cyclopropylmethyl-3,4-dihydro-2H-quinoxalin-1-yl)-[2-(2,5-dichloro-phenoxy)-pyridin-3-yl]-methanone] | 35 |

Reference: patent US8309734B2 (Hoffmann-La Roche Inc., priority 2008, dated 2012)
